Measurements published in patent US8455466B2, “Vitamin d analogues, compositions comprising said analogues and their use” (Leo Pharma A/S, priority 2002, dated 2013).

Columns and labels:
[1] = system: secretion of PTH; settings: patients; 1α(OH)D3 versus 1,25(OH)2 D3 administered; cited from earlier work
[2] = system: rats; test: In vivo calcemic activity in rats (Binderup et al.); set-up: species or system rat; settings: Calcitriol = 100%
[3] = system: bovine parathyroidea cells; test: In vitro PTH secretion in bovine parathyroidea cells; assay type: cell-based; settings: cells treated with vitamin D analogues for 60 hours at 37° C.
Experimental: The calcemic activities of the compounds of the present invention were determined in rats in vivo, as previously described (Binderup, L., Bramm, E., Biochem. Pharmacol. 37, 889-895 (1988)). The PTH suppressive effect of the compounds of the present invention was tested in vitro on bovine parathyroidea cells: Fresh bovine parathyroid glands were collected from adult cattle within 20 min of slaughter. From minced parathyroid tissue dispersed parathyroid cells were prepared as previously described (E. M. Brown, S. Hurwitz and G. D Aurbach; Preparation of viable isolated bovine parathyroid cells; Endocrinology, 1976, vol 99, no 6, 1582-1588). Then, the cells were treated with vitamin D analogues for 60 hours at 37° C. and the PTH secretion was determined.

| Compound | suppression of the secretion of PTH, compared with 1,25(OH)2 D3 dosing [1] | In vivo calcemic activity relative to Calcitriol (1,25(OH)2D3) [2] | In vitro PTH secretion relative to untreated bovine parathyroidea cells (untreated cells as control = 100%) [3] |
| --- | --- | --- | --- |
| C=C1/C(=C\C=C2/CCC[C@]3(C)[C@@H]([C@H](C)CCCC(C)C)CC[C@@H]23)C[C@@H](O)C[C@@H]1O [1α(OH)D3] | no significant difference | – | – |
| 1(S),3(R)-Dihydroxy-9,10-seco-26,27-methano-cholesta-5(Z),7(E),10(19),22(E),24-penta-ene [Compound 6] | – | 1% | 56% |
| C=C1/C(=C\C=C2/CCC[C@]3(C)[C@@H]([C@H](C)CCCC(C)(C)O)CC[C@@H]23)C[C@@H](O)C[C@@H]1O [Calcitriol, 1,25(OH)2D3, reference compound] | – | 100% | 60% |
| C=C1C(=CC=C2CCCC3(C)C2CCC3C(C)C=CC=C(C(F)(F)F)C(F)(F)F)CC(O)CC1O [Compound 25, 1(S),3(R)-Dihydroxy-26,26,26,27,27,27-hexafluoro-9,10-secocholesta-5(Z),7(E),10(19),22(E),24-penta-ene] | – | 8% | 74% |
| C=C1/C(=C\C=C2/CCC[C@]3(C)[C@@H]([C@H](C)/C=C/C=C(CC)CC)CC[C@@H]23)C[C@@H](O)C[C@@H]1O [Compound 28, 1(S),3(R)-Dihydroxy-26,27-dimethyl-9,10-secocholesta-5(Z),7(E),10(19),22(E),24-penta-ene] | – | 1% | 62% |
| C=C1C(=CC=C2CCCC3(C)C2CCC3C(C)C=CC=C(Br)Br)CC(O)CC1O [Compound 27, 1(S),3(R)-Dihydroxy-20(R)-(4,4-dibromo-1,3-butadien-1-yl)-9,10-seco-pregna-5(Z),7(E),10(19)-triene] | – | <0.5% ^ | 65% |
| 1(S),3(R)-Dihydroxy-9,10-seco-26,27-methano-20(S)-cholesta-5(Z),7(E),10(19),22(E),24-penta-ene [Compound 7] | – | <0.5% ^ | 65% |
| C=C1C(=CC=C2CCCC3(C)C2CCC3C(C)C=CC=C(C)C)CC(O)CC1O [Compound 1, 1(S),3(R)-Dihydroxy-9,10-secocholesta-5(Z),7(E),10(19),22(E),24-penta-ene] | – | <10% ^ | 57% |
| C=C1C(=CC=C2CCCC3(C)C2CCC3C(C)C=CC=C(C)C)CC(O)CC1O [Compound 3, 1(S),3(R)-Dihydroxy-9,10-seco-20(S)-cholesta-5(Z),7(E),10(19), 22(E),24-penta-ene] | – | 1% | 61% |
